Experimental data reported in ChEMBL document CHEMBL5465560, “Selectivity Literature for EUbOPEN Chemogenomic Library” (2024).

Legend:
[1] = molecular target: Cyclin-dependent kinase 9 (Homo sapiens, UniProt P50750); experiment: Selectivity interaction (KinomeScan (DiscoverX)) EUB0001079a CDK9; conditions: at 1 µM
[2] = molecular target: T1, SNF-related serine/threonine-protein kinase (Homo sapiens) (UniProt Q9NRH2); experiment: Selectivity interaction (Kinase panel (KiNativ target engagement assay in Jurkat cells)) EUB0001635a SNRK; assay type: cell-based; conditions: at 1 µM
T1 sequence (whole entry): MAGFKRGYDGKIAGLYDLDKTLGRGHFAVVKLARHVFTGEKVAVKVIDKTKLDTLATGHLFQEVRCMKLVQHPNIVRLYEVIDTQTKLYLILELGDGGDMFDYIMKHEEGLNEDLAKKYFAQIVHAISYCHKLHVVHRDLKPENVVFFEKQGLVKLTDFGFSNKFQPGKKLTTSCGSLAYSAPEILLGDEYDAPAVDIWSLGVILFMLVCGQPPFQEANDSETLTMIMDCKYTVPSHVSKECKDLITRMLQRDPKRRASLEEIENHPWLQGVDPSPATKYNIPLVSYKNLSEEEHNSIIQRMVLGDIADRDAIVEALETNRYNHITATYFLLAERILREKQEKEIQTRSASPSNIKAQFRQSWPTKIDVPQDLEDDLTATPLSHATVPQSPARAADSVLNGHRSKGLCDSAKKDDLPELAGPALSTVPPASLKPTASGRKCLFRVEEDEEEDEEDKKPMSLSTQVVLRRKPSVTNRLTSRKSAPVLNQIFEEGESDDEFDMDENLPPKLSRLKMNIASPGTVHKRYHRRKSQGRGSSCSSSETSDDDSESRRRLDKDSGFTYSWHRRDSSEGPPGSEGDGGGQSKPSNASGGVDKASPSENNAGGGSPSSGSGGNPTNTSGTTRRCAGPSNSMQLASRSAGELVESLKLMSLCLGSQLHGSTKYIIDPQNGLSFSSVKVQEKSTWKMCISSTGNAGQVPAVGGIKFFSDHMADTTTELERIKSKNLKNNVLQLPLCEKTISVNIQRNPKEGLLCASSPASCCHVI

[3] = molecular target: Interleukin-1 receptor-associated kinase 1 (Homo sapiens) (UniProt P51617); experiment: Selectivity interaction (Kinase panel (KiNativ target engagement assay in Jurkat cells)) EUB0001635a IRAK1; assay type: cell-based; conditions: Selectivity number of off-targets 0.0, Selectivity number of targets 233.0, Source Knowledge https://www.sciencedirect.com/science/article/pii/S2451945619300674?via%3Dihub, at 1 µM
Chain of Interleukin-1 receptor-associated kinase 1 (Homo sapiens) (P51617 whole entry, looked up): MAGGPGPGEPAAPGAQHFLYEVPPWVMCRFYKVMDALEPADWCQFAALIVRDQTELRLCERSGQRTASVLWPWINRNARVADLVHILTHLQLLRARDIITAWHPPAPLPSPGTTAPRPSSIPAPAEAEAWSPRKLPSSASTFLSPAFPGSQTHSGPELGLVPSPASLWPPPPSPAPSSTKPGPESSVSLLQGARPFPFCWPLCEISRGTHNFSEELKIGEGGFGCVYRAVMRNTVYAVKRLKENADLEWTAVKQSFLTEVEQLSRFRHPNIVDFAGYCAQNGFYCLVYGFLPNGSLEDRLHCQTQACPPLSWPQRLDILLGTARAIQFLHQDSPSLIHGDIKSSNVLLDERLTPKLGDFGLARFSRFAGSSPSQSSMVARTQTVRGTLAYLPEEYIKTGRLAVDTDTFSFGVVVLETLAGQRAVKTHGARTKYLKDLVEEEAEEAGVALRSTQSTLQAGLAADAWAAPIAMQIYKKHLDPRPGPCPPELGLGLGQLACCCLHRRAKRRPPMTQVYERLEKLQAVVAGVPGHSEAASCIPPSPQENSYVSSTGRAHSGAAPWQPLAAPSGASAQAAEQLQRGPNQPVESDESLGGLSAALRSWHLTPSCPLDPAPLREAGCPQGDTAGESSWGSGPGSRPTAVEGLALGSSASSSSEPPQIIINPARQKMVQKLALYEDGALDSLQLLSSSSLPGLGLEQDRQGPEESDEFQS

[4] = molecular target: Ribosomal protein S6 kinase alpha-2 (Homo sapiens) (UniProt Q15349); conditions: at 10 µM
Chain of Ribosomal protein S6 kinase alpha-2 (Homo sapiens) (Q15349 whole entry): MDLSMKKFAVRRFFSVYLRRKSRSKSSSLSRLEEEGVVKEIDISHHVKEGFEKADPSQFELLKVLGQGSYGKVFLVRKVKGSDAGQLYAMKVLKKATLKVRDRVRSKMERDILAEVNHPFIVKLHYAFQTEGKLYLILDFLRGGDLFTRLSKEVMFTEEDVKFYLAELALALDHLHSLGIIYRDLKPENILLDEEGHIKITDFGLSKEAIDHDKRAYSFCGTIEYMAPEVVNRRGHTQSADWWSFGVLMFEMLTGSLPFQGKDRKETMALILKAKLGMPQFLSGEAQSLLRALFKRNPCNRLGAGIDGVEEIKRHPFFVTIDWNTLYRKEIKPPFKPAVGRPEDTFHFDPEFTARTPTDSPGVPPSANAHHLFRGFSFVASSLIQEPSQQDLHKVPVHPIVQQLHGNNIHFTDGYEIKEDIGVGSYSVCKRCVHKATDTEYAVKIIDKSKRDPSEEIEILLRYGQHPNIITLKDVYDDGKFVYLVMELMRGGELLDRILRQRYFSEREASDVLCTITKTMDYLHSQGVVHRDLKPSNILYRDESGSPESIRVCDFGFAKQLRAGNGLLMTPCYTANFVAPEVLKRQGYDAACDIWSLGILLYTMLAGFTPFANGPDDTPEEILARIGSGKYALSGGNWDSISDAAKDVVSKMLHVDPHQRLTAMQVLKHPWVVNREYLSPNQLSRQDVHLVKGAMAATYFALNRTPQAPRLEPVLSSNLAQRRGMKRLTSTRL

[5] = molecular target: T2, Serine/threonine-protein kinase ULK2 (Homo sapiens) (UniProt Q8IYT8); experiment: Selectivity interaction (KinomeScan (DiscoverX)) EUB0000595a ULK2; conditions: at 10 µM
T2 sequence (whole entry): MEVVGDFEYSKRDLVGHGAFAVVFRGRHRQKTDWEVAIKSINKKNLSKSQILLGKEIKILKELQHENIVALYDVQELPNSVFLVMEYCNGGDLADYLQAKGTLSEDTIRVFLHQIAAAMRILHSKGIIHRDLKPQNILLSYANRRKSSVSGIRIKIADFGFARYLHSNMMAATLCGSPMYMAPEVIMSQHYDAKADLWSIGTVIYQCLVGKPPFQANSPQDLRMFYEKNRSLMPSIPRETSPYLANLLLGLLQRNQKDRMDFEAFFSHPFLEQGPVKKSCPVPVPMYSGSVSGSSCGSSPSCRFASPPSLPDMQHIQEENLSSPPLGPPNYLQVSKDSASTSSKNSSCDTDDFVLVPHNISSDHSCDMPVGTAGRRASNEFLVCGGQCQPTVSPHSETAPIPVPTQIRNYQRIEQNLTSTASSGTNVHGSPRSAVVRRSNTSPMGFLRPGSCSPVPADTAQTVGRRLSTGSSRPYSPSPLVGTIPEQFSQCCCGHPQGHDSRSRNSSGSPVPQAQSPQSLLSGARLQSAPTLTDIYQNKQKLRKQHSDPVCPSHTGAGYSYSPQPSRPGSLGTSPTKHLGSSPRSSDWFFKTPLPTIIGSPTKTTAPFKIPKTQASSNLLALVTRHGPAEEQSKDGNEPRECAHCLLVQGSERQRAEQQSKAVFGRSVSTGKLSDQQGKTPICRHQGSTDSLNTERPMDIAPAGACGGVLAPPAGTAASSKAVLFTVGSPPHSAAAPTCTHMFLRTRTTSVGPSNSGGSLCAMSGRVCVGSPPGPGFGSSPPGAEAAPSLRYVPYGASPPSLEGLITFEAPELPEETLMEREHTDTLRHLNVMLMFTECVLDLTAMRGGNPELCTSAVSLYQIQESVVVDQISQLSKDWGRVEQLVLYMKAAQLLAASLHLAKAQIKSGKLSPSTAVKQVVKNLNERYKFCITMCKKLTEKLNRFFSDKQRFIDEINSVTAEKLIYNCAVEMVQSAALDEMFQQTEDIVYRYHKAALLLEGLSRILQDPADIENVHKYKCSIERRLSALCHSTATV

[6] = molecular target: Mitogen-activated protein kinase kinase kinase kinase 1 (Homo sapiens) (UniProt Q92918); experiment: Selectivity interaction (Ambit KINOMEscan and KiNATiv profiling in Jurkat cells) EUB0000090b MAP4K1; assay type: cell-based; conditions: at 1 µM
Chain of Mitogen-activated protein kinase kinase kinase kinase 1 (Homo sapiens) (Q92918 whole entry, looked up): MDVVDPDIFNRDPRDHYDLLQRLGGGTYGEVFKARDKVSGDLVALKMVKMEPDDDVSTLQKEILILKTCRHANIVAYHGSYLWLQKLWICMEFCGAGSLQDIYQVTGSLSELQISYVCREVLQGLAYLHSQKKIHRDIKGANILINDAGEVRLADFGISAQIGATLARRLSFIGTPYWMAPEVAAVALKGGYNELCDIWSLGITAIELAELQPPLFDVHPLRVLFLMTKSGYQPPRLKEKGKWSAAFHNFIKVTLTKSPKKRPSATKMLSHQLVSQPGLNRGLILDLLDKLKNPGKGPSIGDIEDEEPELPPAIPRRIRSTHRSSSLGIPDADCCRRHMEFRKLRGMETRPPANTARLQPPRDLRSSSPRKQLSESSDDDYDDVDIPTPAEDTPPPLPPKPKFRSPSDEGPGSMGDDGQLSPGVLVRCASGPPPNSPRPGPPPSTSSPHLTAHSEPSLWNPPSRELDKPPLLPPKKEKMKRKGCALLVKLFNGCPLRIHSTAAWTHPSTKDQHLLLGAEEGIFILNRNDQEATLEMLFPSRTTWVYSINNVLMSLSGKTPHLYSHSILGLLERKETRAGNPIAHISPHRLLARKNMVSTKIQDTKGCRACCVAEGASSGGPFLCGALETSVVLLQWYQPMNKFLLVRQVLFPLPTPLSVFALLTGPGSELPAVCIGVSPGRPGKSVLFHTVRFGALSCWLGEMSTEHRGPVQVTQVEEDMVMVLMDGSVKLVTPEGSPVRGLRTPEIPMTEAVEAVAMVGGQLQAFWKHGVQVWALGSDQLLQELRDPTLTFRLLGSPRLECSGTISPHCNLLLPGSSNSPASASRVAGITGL

[7] = molecular target: Serine/threonine-protein kinase 10 (Homo sapiens) (UniProt O94804); experiment: Selectivity interaction (ActivX KiNativ screen (ex vivo kinase selectivity in human PBMCs)) EUB0001619a STK10; assay type: cell-based; conditions: PBMC, at 1 µM
Chain of Serine/threonine-protein kinase 10 (Homo sapiens) (O94804 whole entry, looked up): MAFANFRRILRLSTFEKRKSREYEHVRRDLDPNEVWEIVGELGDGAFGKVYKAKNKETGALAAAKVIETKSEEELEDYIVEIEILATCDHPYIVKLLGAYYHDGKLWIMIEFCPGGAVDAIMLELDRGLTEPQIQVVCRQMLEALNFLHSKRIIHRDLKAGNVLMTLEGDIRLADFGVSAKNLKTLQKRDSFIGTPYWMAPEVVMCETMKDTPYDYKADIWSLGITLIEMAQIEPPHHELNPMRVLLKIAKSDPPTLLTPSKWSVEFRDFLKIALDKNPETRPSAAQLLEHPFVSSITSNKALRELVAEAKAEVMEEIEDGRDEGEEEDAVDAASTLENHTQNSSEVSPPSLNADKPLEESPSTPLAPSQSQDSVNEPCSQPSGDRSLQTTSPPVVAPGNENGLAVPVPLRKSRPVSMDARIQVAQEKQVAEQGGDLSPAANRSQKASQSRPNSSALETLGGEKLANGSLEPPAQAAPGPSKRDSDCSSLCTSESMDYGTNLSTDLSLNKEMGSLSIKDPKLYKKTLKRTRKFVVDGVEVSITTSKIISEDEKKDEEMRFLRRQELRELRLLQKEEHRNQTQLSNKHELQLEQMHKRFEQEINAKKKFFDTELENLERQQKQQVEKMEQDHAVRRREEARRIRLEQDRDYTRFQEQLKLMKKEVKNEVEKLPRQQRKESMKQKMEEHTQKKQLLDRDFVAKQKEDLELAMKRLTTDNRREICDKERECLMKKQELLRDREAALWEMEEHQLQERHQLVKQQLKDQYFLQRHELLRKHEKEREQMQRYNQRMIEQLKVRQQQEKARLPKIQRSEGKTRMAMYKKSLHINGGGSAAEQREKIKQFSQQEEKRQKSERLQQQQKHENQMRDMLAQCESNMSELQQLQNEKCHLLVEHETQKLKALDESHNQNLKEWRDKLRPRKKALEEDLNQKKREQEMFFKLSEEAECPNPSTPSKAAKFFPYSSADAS

[8] = molecular target: T3, Calcium/calmodulin-dependent protein kinase type IV (Homo sapiens) (UniProt Q16566); experiment: Selectivity interaction (Kinase panel (Z-LYTE Assay)) EUB0001632a CAMK4; conditions: at 10 µM
T3 sequence (whole entry): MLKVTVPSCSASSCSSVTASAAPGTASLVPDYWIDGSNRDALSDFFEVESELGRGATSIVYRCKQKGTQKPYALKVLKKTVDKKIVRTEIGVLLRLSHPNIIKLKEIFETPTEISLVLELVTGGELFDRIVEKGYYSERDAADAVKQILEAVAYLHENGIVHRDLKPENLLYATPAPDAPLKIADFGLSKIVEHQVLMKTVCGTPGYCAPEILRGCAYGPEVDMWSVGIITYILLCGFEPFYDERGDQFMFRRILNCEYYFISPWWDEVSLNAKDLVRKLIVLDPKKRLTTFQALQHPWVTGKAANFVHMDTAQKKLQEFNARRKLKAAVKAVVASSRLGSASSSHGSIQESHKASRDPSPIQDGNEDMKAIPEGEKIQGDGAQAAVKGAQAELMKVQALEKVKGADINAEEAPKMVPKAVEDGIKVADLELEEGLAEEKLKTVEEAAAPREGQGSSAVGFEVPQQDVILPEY

[9] = molecular target: Mitogen-activated protein kinase 14 (Homo sapiens, UniProt Q16539); experiment: Selectivity interaction (Kinase panel (Z-LYTE Assay)) EUB0001632a MAPK14; conditions: at 10 µM
Chain of Mitogen-activated protein kinase 14 (Q16539 whole entry): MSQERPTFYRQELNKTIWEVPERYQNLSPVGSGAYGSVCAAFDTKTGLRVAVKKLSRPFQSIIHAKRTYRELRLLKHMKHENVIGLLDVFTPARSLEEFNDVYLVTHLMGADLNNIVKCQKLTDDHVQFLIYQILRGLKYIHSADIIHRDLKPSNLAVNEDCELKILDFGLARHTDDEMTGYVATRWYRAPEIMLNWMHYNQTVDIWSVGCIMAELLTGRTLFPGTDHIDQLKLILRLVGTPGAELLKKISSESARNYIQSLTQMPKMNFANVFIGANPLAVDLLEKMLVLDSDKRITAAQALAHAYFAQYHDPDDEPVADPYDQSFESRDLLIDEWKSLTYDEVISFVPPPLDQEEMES

[10] = molecular target: Activin receptor type-2A (Homo sapiens) (UniProt P27037); experiment: Selectivity interaction (ProQinase) EUB0000171b ACVR2A
Chain of Activin receptor type-2A (Homo sapiens) (P27037 whole entry): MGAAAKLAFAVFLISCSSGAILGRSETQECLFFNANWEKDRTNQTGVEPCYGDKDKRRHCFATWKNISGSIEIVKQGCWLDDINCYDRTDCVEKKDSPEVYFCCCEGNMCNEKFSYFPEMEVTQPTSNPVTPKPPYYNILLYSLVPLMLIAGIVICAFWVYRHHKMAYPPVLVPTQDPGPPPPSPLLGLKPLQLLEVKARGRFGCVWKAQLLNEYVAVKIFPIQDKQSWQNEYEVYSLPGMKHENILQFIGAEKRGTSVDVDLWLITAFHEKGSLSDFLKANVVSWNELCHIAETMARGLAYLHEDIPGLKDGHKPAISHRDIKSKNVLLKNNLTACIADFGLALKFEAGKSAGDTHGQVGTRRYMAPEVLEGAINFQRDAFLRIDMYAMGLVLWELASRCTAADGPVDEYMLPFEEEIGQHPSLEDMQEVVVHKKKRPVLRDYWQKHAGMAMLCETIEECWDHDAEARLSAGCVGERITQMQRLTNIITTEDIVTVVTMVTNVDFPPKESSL

Chain of Cyclin-dependent kinase 9 (P50750 whole entry): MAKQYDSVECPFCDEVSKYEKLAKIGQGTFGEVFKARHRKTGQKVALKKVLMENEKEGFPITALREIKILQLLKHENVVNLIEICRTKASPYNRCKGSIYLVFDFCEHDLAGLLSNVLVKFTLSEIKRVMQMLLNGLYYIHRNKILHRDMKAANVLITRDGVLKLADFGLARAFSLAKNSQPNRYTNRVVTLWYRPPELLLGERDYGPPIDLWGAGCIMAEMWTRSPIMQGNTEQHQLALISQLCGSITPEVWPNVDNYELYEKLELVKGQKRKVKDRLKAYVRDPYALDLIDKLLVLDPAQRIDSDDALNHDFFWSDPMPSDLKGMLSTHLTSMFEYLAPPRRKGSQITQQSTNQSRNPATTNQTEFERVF

## Nc1cnc(N2CCc3cc(S(=O)(=O)Nc4c(F)cc(Cl)cc4F)cc(N4CCCC4=O)c32)nc1 [TP-020n]
[1]
  % of control: 100%

## C=CC(=O)Nc1ccc(C(=O)Nc2[nH]nc3c2CN(C(=O)N[C@H](CN(C)C)c2ccccc2)C3(C)C)cc1
[2]; Selectivity number of off-targets 0.0, Selectivity number of targets 233.0, Source Knowledge https://www.sciencedirect.com/science/article/pii/S2451945619300674?via%3Dihub
  % of engagement: 6.9%
[2]
  % of engagement: 30.4%
[3]
  % of engagement: 1.3%

## CCN(CC)CCCCNc1ncc2cc(-c3cc(OC)cc(OC)c3)c(NC(=O)NC(C)(C)C)nc2n1
[4]
  % of control: 100%

## COCC(=O)NC/C=C/c1ccc2ncnc(Nc3ccc(Oc4ccc(C)nc4)c(C)c3)c2c1 [CP-724714]
[5]
  % of control: 100%

## CN(C)C/C=C/C(=O)Nc1ccc(C(=O)N2CCCC(Nc3ncc(Cl)c(-c4c[nH]c5ccccc45)n3)C2)cc1 (configuration not stated)
[6]
  % of control: 80%

## N#Cc1cccc(-c2c[nH]c3ncnc(N4CCOCC4)c23)c1
[7]
  % of inhibition: 60%

## Cn1cc(-n2cnc3c(NCc4nc5cc(Cl)c(Cl)cc5[nH]4)nc(N4CCOCC4)nc32)cn1
[8]
  % of control: -4.99%
[9]
  % of control: -3.84%

## C=CC(=O)Nc1cccc(C(=O)Nc2ccc(Nc3cc(-c4[nH]c(SC)nc4C)ccn3)cc2)c1
[10]; at 1 µM
  % of control: 81%
[10]; at 5 µM
  % of control: 80%
